Source: PubChem BioAssay (NCI)
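All cell lines were grown in 96-well plates and treated with compound for 48 hours. At the GI50, growth is halved. TGI is the concentration that stops growth completely.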

How the values were obtained:
Test in all cases: DTP human tumour cell line panel, 48 h
K-562 leukemia = tested on: K-562 leukemia
RPMI-8226 leukemia = tested on: RPMI-8226 leukemia
NCI-H522 lung = tested on: NCI-H522 lung
MDA-MB-468 breast = tested on: MDA-MB-468 breast
NCI/ADR-RES ovarian = tested on: NCI/ADR-RES ovarian
UACC-62 melanoma = tested on: UACC-62 melanoma
MDA-MB-231 breast = tested on: MDA-MB-231 breast
A549 NSCLC = tested on: A549 NSCLC
SK-OV-3 ovarian = tested on: SK-OV-3 ovarian
COLO 205 colon = tested on: COLO 205 colon
MALME-3M melanoma = tested on: MALME-3M melanoma
KM12 colon = tested on: KM12 colon
M14 melanoma = tested on: M14 melanoma
OVCAR-4 ovarian = tested on: OVCAR-4 ovarian
TK-10 renal = tested on: TK-10 renal
T-47D breast = tested on: T-47D breast
HL-60(TB) leukemia = tested on: HL-60(TB) leukemia
BT-549 breast = tested on: BT-549 breast
OVCAR-5 ovarian = tested on: OVCAR-5 ovarian
A498 renal = tested on: A498 renal
HCC-2998 colon = tested on: HCC-2998 colon
NCI-H460 lung = tested on: NCI-H460 lung
SK-MEL-5 melanoma = tested on: SK-MEL-5 melanoma
NCI-H226 lung = tested on: NCI-H226 lung
HOP-92 NSCLC = tested on: HOP-92 NSCLC
SNB-19 CNS = tested on: SNB-19 CNS
SF-268 CNS = tested on: SF-268 CNS
SF-539 CNS = tested on: SF-539 CNS
UACC-257 melanoma = tested on: UACC-257 melanoma
SK-MEL-28 melanoma = tested on: SK-MEL-28 melanoma
SN12C renal = tested on: SN12C renal
SF-295 CNS = tested on: SF-295 CNS
RXF 393 renal = tested on: RXF 393 renal
HT29 colon = tested on: HT29 colon
ACHN renal = tested on: ACHN renal
HCT-15 colon = tested on: HCT-15 colon
U251 CNS = tested on: U251 CNS
SNB-75 CNS = tested on: SNB-75 CNS
HCT-116 colon = tested on: HCT-116 colon
EKVX NSCLC = tested on: EKVX NSCLC
OVCAR-8 ovarian = tested on: OVCAR-8 ovarian
SR leukemia = tested on: SR leukemia
NCI-H23 lung = tested on: NCI-H23 lung
OVCAR-3 ovarian = tested on: OVCAR-3 ovarian
CAKI-1 renal = tested on: CAKI-1 renal
HOP-62 NSCLC = tested on: HOP-62 NSCLC
SK-MEL-2 melanoma = tested on: SK-MEL-2 melanoma
HS 578T breast = tested on: HS 578T breast
MOLT-4 leukemia = tested on: MOLT-4 leukemia
LOX IMVI melanoma = tested on: LOX IMVI melanoma
UO-31 renal = tested on: UO-31 renal
786-0 renal = tested on: 786-0 renal
MCF7 breast = tested on: MCF7 breast
PC-3 prostate = tested on: PC-3 prostate
SW-620 colon = tested on: SW-620 colon
DU-145 prostate = tested on: DU-145 prostate
IGROV1 ovarian = tested on: IGROV1 ovarian
MDA-MB-435 = tested on: MDA-MB-435
CCRF-CEM leukemia = tested on: CCRF-CEM leukemia

## O=C(NO)c1ccc(CNC(=O)[C@H]2Cc3c([nH]c4ccccc34)[C@H](c3ccc(Cl)cc3)N2)cc1
K-562 leukemia
  GI50: 720 nM
  TGI: > 22000 nM
RPMI-8226 leukemia
  GI50: 564 nM
  TGI: > 22000 nM
NCI-H522 lung
  GI50: 584 nM
  TGI: 3160 nM
MDA-MB-468 breast
  GI50: 380 nM
  TGI: 1140 nM
NCI/ADR-RES ovarian
  GI50: 3350 nM
  TGI: > 22000 nM
UACC-62 melanoma
  GI50: 538 nM
  TGI: 2940 nM
MDA-MB-231 breast
  GI50: 887 nM
  TGI: 4000 nM
A549 NSCLC
  GI50: 3970 nM
  TGI: > 22000 nM
SK-OV-3 ovarian
  GI50: 2010 nM
  TGI: 5900 nM
COLO 205 colon
  GI50: 719 nM
  TGI: 3380 nM
MALME-3M melanoma
  GI50: 410 nM
  TGI: 2310 nM
KM12 colon
  GI50: 2360 nM
  TGI: 6710 nM
M14 melanoma
  GI50: 2200 nM
  TGI: 8420 nM
OVCAR-4 ovarian
  GI50: 3730 nM
  TGI: > 22000 nM
TK-10 renal
  GI50: 1510 nM
  TGI: 14600 nM
T-47D breast
  GI50: 600 nM
  TGI: 5440 nM
HL-60(TB) leukemia
  GI50: 706 nM
  TGI: 3130 nM
BT-549 breast
  GI50: 4930 nM
  TGI: 11000 nM
OVCAR-5 ovarian
  GI50: 456 nM
  TGI: 3010 nM
A498 renal
  GI50: 2060 nM
  TGI: 9060 nM
HCC-2998 colon
  GI50: 605 nM
  TGI: 3080 nM
NCI-H460 lung
  GI50: 1020 nM
  TGI: > 22000 nM
SK-MEL-5 melanoma
  GI50: 721 nM
  TGI: 2710 nM
NCI-H226 lung
  GI50: 2270 nM
  TGI: 11600 nM
HOP-92 NSCLC
  GI50: 930 nM
  TGI: 4480 nM
SNB-19 CNS
  GI50: 2260 nM
  TGI: 5300 nM
SF-268 CNS
  GI50: 2920 nM
  TGI: 12500 nM
SF-539 CNS
  GI50: 1140 nM
  TGI: 4240 nM
UACC-257 melanoma
  GI50: 1230 nM
  TGI: > 22000 nM
SK-MEL-28 melanoma
  GI50: 878 nM
  TGI: 3620 nM
SN12C renal
  GI50: 2410 nM
  TGI: 9150 nM
SF-295 CNS
  GI50: 1810 nM
  TGI: 4750 nM
RXF 393 renal
  GI50: 455 nM
  TGI: 2250 nM
HT29 colon
  GI50: 838 nM
  TGI: > 22000 nM
ACHN renal
  GI50: 3050 nM
  TGI: 9570 nM
HCT-15 colon
  GI50: 4260 nM
  TGI: > 22000 nM
U251 CNS
  GI50: 1210 nM
  TGI: 5800 nM
SNB-75 CNS
  GI50: 2260 nM
  TGI: 7580 nM
HCT-116 colon
  GI50: 609 nM
  TGI: 3720 nM
EKVX NSCLC
  GI50: 2650 nM
  TGI: 16400 nM
OVCAR-8 ovarian
  GI50: 942 nM
  TGI: > 22000 nM
SR leukemia
  GI50: 1150 nM
  TGI: > 22000 nM
NCI-H23 lung
  GI50: 1330 nM
  TGI: 4260 nM
OVCAR-3 ovarian
  GI50: 1230 nM
  TGI: 9150 nM
CAKI-1 renal
  GI50: 2330 nM
  TGI: 9730 nM
HOP-62 NSCLC
  GI50: 1270 nM
  TGI: 7420 nM
SK-MEL-2 melanoma
  GI50: 2770 nM
  TGI: 7030 nM
HS 578T breast
  GI50: 1010 nM
  TGI: > 22000 nM
MOLT-4 leukemia
  GI50: 563 nM
  TGI: > 22000 nM
LOX IMVI melanoma
  GI50: 1090 nM
  TGI: 4760 nM
UO-31 renal
  GI50: 2640 nM
  TGI: 6270 nM
786-0 renal
  GI50: 3710 nM
  TGI: 14200 nM
MCF7 breast
  GI50: 874 nM
  TGI: 8360 nM
PC-3 prostate
  GI50: 1760 nM
  TGI: 9170 nM
SW-620 colon
  GI50: 687 nM
  TGI: 2370 nM
DU-145 prostate
  GI50: 1080 nM
  TGI: > 22000 nM
IGROV1 ovarian
  GI50: 1200 nM
  TGI: 4270 nM
MDA-MB-435
  GI50: 959 nM
  TGI: 4360 nM
CCRF-CEM leukemia
  GI50: 617 nM
  TGI: > 22000 nM

## COc1ccc(CN2c3ccccc3CCc3ccccc32)cc1F
MDA-MB-468 breast
  GI50: 399 nM
  TGI: > 100000 nM

## CN(C)C(=O)O[C@@H]1CN[C@@H](C#Cc2cc3ncnc(Nc4ccc(OCc5cccc(F)c5)c(Cl)c4)c3s2)C1
MDA-MB-468 breast
  GI50: 1740 nM
  TGI: 12700 nM

## CCOc1c(Cl)cc(CNC(C)C(O)c2ccccc2)cc1OC (stereo not given)
MDA-MB-468 breast
  GI50: 16700 nM
  TGI: 33200 nM

## O=C1CC(=O)OC(c2ccc([N+](=O)[O-])cc2)O1
MDA-MB-468 breast
  GI50: 1670 nM
  TGI: 3480 nM

## CC(C)[C@H]1C(=O)N[C@@H](CCCN=C(N)N)C(=O)NCC(=O)N[C@@H](CC(=O)O)C(=O)N[C@H](Cc2ccccc2)C(=O)N1C
MDA-MB-468 breast
  GI50: 403 nM
  TGI: 2180 nM

## Cc1c2ccc(N(C)c3ccnc(Nc4cccc(S(N)(=O)=O)c4)n3)cc2nn1C
MDA-MB-468 breast
  GI50: 8210 nM
  TGI: > 23500 nM

## COc1ccc(-c2cn[nH]c2-c2cc(OC)c3c(c2)OCCO3)cc1
MDA-MB-468 breast
  GI50: 115 nM
  TGI: 2760 nM

## C=C(C)C(=O)O[C@H]1C[C@@]2(C)OC(=CC2=O)/C(C)=C\[C@H]2OC(=O)C(=C)[C@H]12
MDA-MB-468 breast
  GI50: 622 nM
  TGI: 1560 nM

## N#C[C@@H]1C(n2ccc(N)nc2=O)O[C@H](CO)[C@H]1O (stereo not given in full)
MDA-MB-468 breast
  GI50: > 73100 nM
  TGI: > 100000 nM

## COC(=O)CCCCCN=Cc1c(O)c(O)c(C(C)C)c2cc(C)c(-c3c(C)cc4c(C(C)C)c(O)c(O)c(C=NCCCCCC(=O)OC)c4c3O)c(O)c12
MDA-MB-468 breast
  GI50: 1970 nM
  TGI: 12900 nM

## Cn1cc(CNCC2CCN(c3ncc(C(=O)NO)cn3)CC2)c2ccccc21
MDA-MB-468 breast
  GI50: < 10 nM
  TGI: 476 nM

## CCC(C)[C@H]1OC(=O)[C@H](C(C)C)N(C)C(=O)[C@@H](C(C)C)OC(=O)[C@H](C(C)C)N(C)C(=O)[C@@H](C(C)CC)OC(=O)[C@H](C(C)C)N(C)C1=O (stereo not given in full)
MDA-MB-468 breast
  GI50: 440 nM
  TGI: 1350 nM

## CCN(CC)CCCC(C)Nc1c2ccc(C)cc2nc2ccc(OC)cc12 (stereo not given)
MDA-MB-468 breast
  GI50: 1280 nM
  TGI: 2840 nM

## CSc1ccc(/C=C2\C=C(CC(=O)NCc3ccc(C(=O)c4ccccc4)cc3)c3cc(F)ccc32)cc1
MDA-MB-468 breast
  GI50: 19.9 nM
  TGI: 7400 nM

## CNC(=O)c1cc(-n2ccc3cc(NC(=O)Nc4ccc(N5CCOCC5)c(C(F)(F)F)c4)ccc32)ccn1
MDA-MB-468 breast
  GI50: 12800 nM
  TGI: > 33300 nM

## CCC(c1cccc(O)c1)C(CC)c1cccc(O)c1 (stereo not given)
MDA-MB-468 breast
  GI50: 28 nM
  TGI: 4370 nM
